The source of these data is patent US10392368B2, “Pyrazolo and triazolo bicyclic compounds as JAK kinase inhibitors” (THERAVANCE BIOPHARMA R&D IP, LLC, priority 2017, dated 2019).

A value given as a limit tells only on which side of the number the result lay.

For one assay, the target named is T1, JAK2 (Homo sapiens, UniProt O60674).
T1 construct: GST; purchased Life Technologies
The experiment in a line: Biochemical JAK2 kinase assay (LanthaScreen). To be noted: read-out: JAK 2 (pKi) (converted). The method, boiled down:
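GST-tagged recombinant JAK2 pre-incubated 1 h at ambient temperature with compound and GFP-STAT1 peptide in HEPES pH 7.5/MgCl2 buffer, then ATP added for a 1 h reaction with 1% DMSO. TR-FRET read after EDTA and Tb-anti-pSTAT1 (pTyr701) addition; IC50 from 4-parameter fit, converted to pKi by Cheng-Prusoff.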
(In general: Time-resolved FRET reads energy transfer from a long-lived donor to a nearby acceptor.)

The test system of assay [1] is oxazolone-induced colitis. The experiment in a line: Mouse model of oxazolone-induced colitis. The assay is classed as in vivo. The note with it: 3 mg/kg (PO, BID). The method, boiled down:
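BALB/c mice skin-sensitized with 4% oxazolone, then challenged intrarectally seven days later with 50 μL 0.8% oxazolone in 1:1 ethanol:water. Oral dosing (QD, BID or TID) or vehicle started one day before challenge. Blinded scoring two days post-challenge: stool consistency plus gross bleeding (0/2/4 each), summed as combined stool score.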

Assay [2] deals with IL-2 induced pSTAT5 in thymus. The experiment in a line: Systemic target engagement: murine model of IL-2 induced pSTAT5 induction in thymus. The assay is classed as in vivo, mouse. An excerpt: IL-2 is an important cytokine underlying the pathophysiology of gastro-intestinal diseases such as […] bowel disease (IBD; Guan and Zhang. Mediators Inflamm, 2017; 4810258). IL-2 binds to cell surface receptors activating members of the Janus family of kinases (JAK), specifically JAK3, which then phosphorylates STAT5 and subsequently activates further transcription pathways. In this model, a dose of IL-2 was delivered systemically to mice to induce the phosphorylation of STAT5 (pSTAT5) which was then measured as the endpoint.
Adult male Balb/c mice from Harlan were used in the assay. Animals were administered test compound via oral gavage (PO, 10 or 30 mg/kg for single dose studies; 10-60 mg/kg for dose response studies) on the afternoon of the day prior to study and then in the morning on the day of study. Two hours after the second PO dose administration, mice were injected intraperitoneally (i.p.) with 100 μl of an appropriate IL-2 dose (for a total of 1-5 μg/mouse depending upon IL-2 batch; R&D Systems). 90-120 minutes after IL-2 insult, thymus samples were harvested.

The target of another assay is T2, Tyk2 (Homo sapiens, UniProt P29597).
T2 construct: GST; purchased Life Technologies
The experiment in a line: Biochemical Tyk2 kinase assay (LanthaScreen). To be noted: read-out: Tyk 2 (pKi) (converted). The method, boiled down: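 Compounds were preincubated with the GST-tagged kinase and GFP-labelled STAT1 peptide for one hour before ATP initiated a one-hour reaction at ambient temperature. Phosphorylation was quantified by TR-FRET with a Tb-labelled pTyr701 antibody. Ki values were derived from IC50 using Cheng-Prusoff.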

For assay [3], the system named is IL-2 stimulated pSTAT5 in Tall-1 T cells. The experiment in a line: Cellular JAK3 potency assay: inhibition of IL-2 stimulated pSTAT5 in Tall-1 T cells. Type of assay: cell-based, human. To be noted: Homo sapiens, TALL-1, IL-2 stimulated pSTAT5 in Tall-1 T cells; read-out: Tall-1 (pIC50) (converted). The method, boiled down:
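In human Tall-1 T cells, IL-2 (300 ng/ml final, 30 min) drives STAT5 phosphorylation after a 1 h compound pretreatment. Lysates are assayed for pSTAT5 by AlphaLisa, and IC50 derived from signal versus concentration is expressed as pIC50.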

T1 sequence (O60674 whole entry): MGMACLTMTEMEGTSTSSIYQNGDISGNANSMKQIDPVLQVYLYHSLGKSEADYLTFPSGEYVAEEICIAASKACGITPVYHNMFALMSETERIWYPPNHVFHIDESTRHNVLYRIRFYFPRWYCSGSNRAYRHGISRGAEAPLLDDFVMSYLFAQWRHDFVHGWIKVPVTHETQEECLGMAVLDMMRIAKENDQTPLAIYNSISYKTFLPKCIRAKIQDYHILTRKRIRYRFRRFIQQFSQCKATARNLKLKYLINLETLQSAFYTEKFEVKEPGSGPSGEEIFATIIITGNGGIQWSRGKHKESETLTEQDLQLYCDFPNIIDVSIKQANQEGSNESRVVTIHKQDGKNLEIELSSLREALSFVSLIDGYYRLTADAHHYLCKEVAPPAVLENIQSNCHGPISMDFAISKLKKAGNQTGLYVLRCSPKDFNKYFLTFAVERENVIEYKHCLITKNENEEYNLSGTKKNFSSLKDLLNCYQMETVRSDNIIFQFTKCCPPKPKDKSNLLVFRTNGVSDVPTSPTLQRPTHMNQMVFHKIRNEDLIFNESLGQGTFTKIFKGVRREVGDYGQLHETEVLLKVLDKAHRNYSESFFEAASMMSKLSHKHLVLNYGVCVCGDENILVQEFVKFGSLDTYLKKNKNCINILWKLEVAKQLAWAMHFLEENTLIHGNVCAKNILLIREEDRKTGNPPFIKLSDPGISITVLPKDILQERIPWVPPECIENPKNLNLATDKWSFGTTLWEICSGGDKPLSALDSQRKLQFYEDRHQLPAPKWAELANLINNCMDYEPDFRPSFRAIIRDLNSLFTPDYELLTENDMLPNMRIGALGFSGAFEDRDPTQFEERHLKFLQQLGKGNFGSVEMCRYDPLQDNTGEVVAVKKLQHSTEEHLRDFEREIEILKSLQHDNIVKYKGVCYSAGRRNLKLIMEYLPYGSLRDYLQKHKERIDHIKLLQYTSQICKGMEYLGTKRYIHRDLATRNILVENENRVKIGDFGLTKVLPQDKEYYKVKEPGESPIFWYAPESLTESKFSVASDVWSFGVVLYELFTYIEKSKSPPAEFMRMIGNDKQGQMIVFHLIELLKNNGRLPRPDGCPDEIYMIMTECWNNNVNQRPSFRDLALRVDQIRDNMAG
T2 sequence (P29597 whole entry): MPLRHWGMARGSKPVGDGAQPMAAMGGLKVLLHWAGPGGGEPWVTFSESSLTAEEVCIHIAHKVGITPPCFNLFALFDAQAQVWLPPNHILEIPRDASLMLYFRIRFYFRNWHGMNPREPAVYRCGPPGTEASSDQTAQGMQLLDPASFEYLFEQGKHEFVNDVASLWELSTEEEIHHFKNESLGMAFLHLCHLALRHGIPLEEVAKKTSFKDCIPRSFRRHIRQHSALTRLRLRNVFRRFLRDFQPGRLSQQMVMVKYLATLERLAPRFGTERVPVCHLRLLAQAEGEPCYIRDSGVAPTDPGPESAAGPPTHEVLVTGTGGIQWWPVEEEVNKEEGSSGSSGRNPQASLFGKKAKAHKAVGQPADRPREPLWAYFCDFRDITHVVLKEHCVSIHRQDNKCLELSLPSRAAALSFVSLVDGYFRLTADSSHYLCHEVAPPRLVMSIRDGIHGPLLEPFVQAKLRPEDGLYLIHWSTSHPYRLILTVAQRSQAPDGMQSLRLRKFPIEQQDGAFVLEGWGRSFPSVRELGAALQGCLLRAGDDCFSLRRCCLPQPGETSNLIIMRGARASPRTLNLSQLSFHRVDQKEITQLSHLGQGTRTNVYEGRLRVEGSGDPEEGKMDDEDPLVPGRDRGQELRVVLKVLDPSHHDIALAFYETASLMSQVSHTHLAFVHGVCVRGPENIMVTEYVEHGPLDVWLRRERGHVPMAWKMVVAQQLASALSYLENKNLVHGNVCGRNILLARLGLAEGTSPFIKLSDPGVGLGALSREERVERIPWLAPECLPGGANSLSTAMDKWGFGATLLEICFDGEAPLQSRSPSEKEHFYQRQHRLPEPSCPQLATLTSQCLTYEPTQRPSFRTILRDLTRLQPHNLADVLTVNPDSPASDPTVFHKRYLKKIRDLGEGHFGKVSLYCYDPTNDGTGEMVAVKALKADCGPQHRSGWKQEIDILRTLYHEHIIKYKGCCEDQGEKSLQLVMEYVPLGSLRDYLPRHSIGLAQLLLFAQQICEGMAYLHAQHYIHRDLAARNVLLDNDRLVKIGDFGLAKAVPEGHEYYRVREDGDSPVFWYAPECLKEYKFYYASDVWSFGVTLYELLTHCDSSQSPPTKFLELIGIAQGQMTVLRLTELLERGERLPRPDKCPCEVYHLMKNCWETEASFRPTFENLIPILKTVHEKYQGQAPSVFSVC

As for `CN(C)C/C=C/C(=O)N1CC(C(C)(C)Oc2cc(-c3ccc(O)c(Cl)c3)cc3[nH]ncc23)C1` [Compound 3, (E)-1-(3-(2-((6-(3-chloro-4-hydroxyphenyl)-1H-indazol-4-yl)oxy)propan-2-yl)azetidin-1-yl)-4-(dimethylamino)but-2-en-1-one], the Ki on JAK2 and at Tyk2 was greater than 100 nM throughout. Besides, the “combined stool score endpoint as compared with vehicle treated animals” value in assay [1] was “statistically significant decrease”. In assay [2] (PO, 30 and 100 mg/kg), the “inhibition of IL-2 induced pSTAT5 in thymus compared to vehicle” value (“inhibition … compared to vehicle” below) is recorded as “no significant inhibition”. For the same molecule, the IC50 in assay [3] is 31.6 to 200 nM.

On to `CN(C)C/C=C/C(=O)N1CC(COc2cc(-c3ccc(O)c(F)c3)cc3[nH]ncc23)C1` [Compound 5, (E)-4-(dimethylamino)-1-(3-(((6-(3-fluoro-4-hydroxyphenyl)-1H-indazol-4-yl)oxy)methyl)azetidin-1-yl)but-2-en-1-one], for which the Ki on JAK2 was 10 to 100 nM; at Tyk2, greater than 100 nM. The “combined stool score endpoint as compared with vehicle treated animals” value in assay [1] was “statistically significant decrease”. Further, in assay [2] (PO, 30 mg/kg), the “inhibition … compared to vehicle” value is “no significant inhibition”. Further, the IC50 in assay [3] is 31.6 to 200 nM.

For `C=CC(=O)N1CCO[C@@H](C(=O)Nc2cc(-c3ccc(O)cc3)cc3[nH]ncc23)C1` [Compound 6, (R)-4-acryloyl-N-(6-(4-hydroxyphenyl)-1H-indazol-4-yl)morpholine-2-carboxamide], the Ki is 10 to 100 nM on JAK2 and greater than 100 nM at Tyk2. The “combined stool score endpoint as compared with vehicle treated animals” value in assay [1] is reported as “statistically significant decrease”. In assay [2] (PO, 10 mg/kg), the “inhibition … compared to vehicle” value is “no significant inhibition”. For the same molecule, the IC50 in assay [3] was less than 31.6 nM.

Regarding `C=CC(=O)N1CC(C)(COc2nc(-c3ccc(O)c(F)c3)nc3[nH]ncc23)C1` [Compound 21, 1-(3-(((6-(3-fluoro-4-hydroxyphenyl)-1H-pyrazolo[3,4-d]pyrimidin-4-yl)oxy)methyl)-3-methylazetidin-1-yl)prop-2-en-1-one], the Ki on JAK2 and on Tyk2 was greater than 100 nM in each case. Further, the “combined stool score endpoint as compared with vehicle treated animals” value in assay [1] was “statistically significant decrease”. For the same molecule, the IC50 in assay [3] was 31.6 to 200 nM.

With `CN(C)C/C=C/C(=O)N1CC(COc2cc(-c3ccc(O)cc3)cc3[nH]ncc23)C1` [Compound 1, (E)-4-(dimethylamino)-1-(3-(((6-(4-hydroxyphenyl)-1H-indazol-4-yl)oxy)methyl)azetidin-1-yl)but-2-en-1-one], the Ki is 10 to 100 nM on JAK2 and greater than 100 nM at Tyk2. Besides, the “combined stool score endpoint as compared with vehicle treated animals” value in assay [1] was “statistically significant decrease”. Also, the “inhibition … compared to vehicle” value in assay [2] (PO, 10, 30, 60 and 100 mg/kg) is reported as “no significant inhibition”. The IC50 in assay [3] is 31.6 to 200 nM.

Consider `C=CC(=O)N1CC(COc2nc(-c3ccc(O)cc3)nc3[nH]ncc23)C1` [Compound 4, 1-(3-(((6-(4-hydroxyphenyl)-1H-pyrazolo[3,4-d]pyrimidin-4-yl)oxy)methyl)azetidin-1-yl)prop-2-en-1-one], for which the Ki at JAK2 and on Tyk2 was greater than 100 nM in each case. The “combined stool score endpoint as compared with vehicle treated animals” value in assay [1] was “statistically significant decrease”. The “inhibition … compared to vehicle” value in assay [2] (PO, 30 mg/kg) is “no significant inhibition”. Also, in assay [3], the IC50 is 31.6 to 200 nM.

Consider `C=CC(=O)N1CC[C@H](COc2cc(-c3ccc(O)cc3)cc3[nH]ncc23)C1` [Compound 7, (S)-1-(3-(((6-(4-hydroxyphenyl)-1H-indazol-4-yl)oxy)methyl)pyrrolidin-1-yl)prop-2-en-1-one], for which the Ki was 10 to 100 nM on JAK2 and greater than 100 nM at Tyk2. Besides, the “combined stool score endpoint as compared with vehicle treated animals” value in assay [1] is recorded as “statistically significant decrease”. Also, in assay [2] (PO, 10 mg/kg), the “inhibition … compared to vehicle” value is listed as “no significant inhibition”. Moreover, in assay [3], the IC50 is 31.6 to 200 nM.

Consider `CN(C)C/C=C/C(=O)N1CCC(C)(Oc2cc(-c3ccc(O)cc3)cc3[nH]ncc23)CC1` [Compound 9, (E)-4-(dimethylamino)-1-(4-((6-(4-hydroxyphenyl)-1H-indazol-4-yl)oxy)-4-methylpiperidin-1-yl)but-2-en-1-one], for which, in assay [3], the IC50 is 31.6 to 200 nM.

In the case of `C=CC(=O)N1CC(CC)(COc2cc(-c3ccc(O)cc3)nc3[nH]ncc23)C1` [Compound 22, 1-(3-ethyl-3-(((6-(4-hydroxyphenyl)-1H-pyrazolo[3,4-b]pyridin-4-yl)oxy)methyl)azetidin-1-yl)prop-2-en-1-one], the Ki on JAK2 and at Tyk2 was greater than 100 nM throughout. Further, in assay [3], the IC50 is 31.6 to 200 nM.

On to `C=CC(=O)N1CC(C(C)(C)Oc2cc(-c3ccc(O)cc3)nc3[nH]ncc23)C1` [Compound 20, 1-(3-(2-((6-(4-hydroxyphenyl)-1H-pyrazolo[3,4-b]pyridin-4-yl)oxy)propan-2-yl)azetidin-1-yl)prop-2-en-1-one], for which the Ki at JAK2 and on Tyk2 was greater than 100 nM in each case. In addition, in assay [3], the IC50 is less than 31.6 nM.

Take `CN(C)C/C=C/C(=O)N1CC(C#N)(COc2cc(-c3ccc(O)c(F)c3)cc3[nH]ncc23)C1` [Compound 8, (E)-1-(4-(dimethylamino)but-2-enoyl)-3-(((6-(3-fluoro-4-hydroxyphenyl)-1Hindazol-4-yl)oxy)methyl)azetidine-3-carbonitrile]: the Ki is 10 to 100 nM at JAK2 and greater than 100 nM at Tyk2. Moreover, in assay [1], the “combined stool score endpoint as compared with vehicle treated animals” value is listed as “statistically significant decrease”. Also, the “inhibition … compared to vehicle” value in assay [2] (PO, 30 mg/kg) is on record as “no significant inhibition”. The IC50 in assay [3] was less than 31.6 nM.

Turning to `C=CC(=O)N1CC[C@H](Oc2cc(-c3ccc(O)c(Cl)c3)cc3[nH]ncc23)C1` [Compound 2, (S)-1-(3-((6-(3-chloro-4-hydroxyphenyl)-1H-indazol-4-yl)oxy)pyrrolidin-1-yl)prop-2-en-1-one], the Ki at JAK2 and at Tyk2 was greater than 100 nM each time. The “combined stool score endpoint as compared with vehicle treated animals” value in assay [1] was “statistically significant decrease”. Besides, in assay [2] (PO, 10, 30 and 60 mg/kg), the “inhibition … compared to vehicle” value was “no significant inhibition”. For the same molecule, in assay [3], the IC50 is less than 31.6 nM.
